We go through 2 compounds from PMC6409773 (Marine Drugs, 2019).

Assay [1] has as its target T1, D1 (h) Dopamine (Homo sapiens, UniProt P21728). Nature of the assay: Cell-based functional GPCR assay, agonist effect (cAMP). The settings on record: read-out: % of Control Agonist Response. The procedure: (§1) A functional GPCR cell-based assay presents readouts of multiple second messengers including cAMP for Gi and Gs-coupled receptors and IP1 and IP3/calcium flux for Gq-coupled receptors. Functional assays were conducted at Eurofins Cerep (Le Bois I’Eveque, France) using transected cells expressing human cloned receptors. The in-house functional assay protocol (https://www.eurofinsdiscoveryservices.com/cms/cms-content/services/in-vitro-assays/gpcrs/functional/) and experimental conditions are shown in Supplementary Table S1. Stable cell lines expressing recombinant GPCRs were used in this study.
(§2) . Following incubation, cells were lysed and a fluorescence acceptor (D2-labeled cAMP) and fluorescence donor (anti-cAMP antibody with europium cryptate) were added. After 60 min at room temperature, fluorescence transfer was measured at λex = 337 nm and λem = 620 and 665 nm using a microplate reader (Envison, Perkin Elmer, Waltham, MA, USA). Cyclic AMP concentration was determined by dividing the signal measured at 665 nm by that measured at 620 nm (ratio). […].
(§3) Cellular agonist effect was calculated as the percentage of the control response to a known reference agonist for each target and the cellular antagonist effect was calculated as the percentage inhibition of the control reference agonist response for each target. Results are expressed as a percentage of control agonist response or inverse agonist response (measured response/control response × 100) and as percent inhibition of control agonist response [100 − (measured response/control response × 100)] obtained in the presence of the eckol.

Assay [2] concerns the target T2, D3 (h) Dopamine (Homo sapiens, UniProt P35462). The assay is described as above. The procedure:
as §1, §2, §3

Assay [3] addresses T3, D4 (h) Dopamine (Homo sapiens, UniProt P21917).
T3 sequence (P21917 1-419): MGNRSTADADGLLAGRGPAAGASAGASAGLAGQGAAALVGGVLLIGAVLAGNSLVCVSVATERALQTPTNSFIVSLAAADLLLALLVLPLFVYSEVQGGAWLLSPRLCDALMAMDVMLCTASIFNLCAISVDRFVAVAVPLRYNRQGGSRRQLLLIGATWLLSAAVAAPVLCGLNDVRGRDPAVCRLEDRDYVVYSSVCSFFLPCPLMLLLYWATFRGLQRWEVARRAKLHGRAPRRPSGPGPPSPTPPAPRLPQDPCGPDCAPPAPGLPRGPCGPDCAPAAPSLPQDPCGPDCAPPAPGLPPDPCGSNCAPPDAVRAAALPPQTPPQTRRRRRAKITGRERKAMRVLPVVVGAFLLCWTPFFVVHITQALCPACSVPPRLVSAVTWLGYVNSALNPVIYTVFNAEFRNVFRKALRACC
The assay is described as above. The procedure: as §1, §2, §3

Assay [4] deals with T4, 5-HT1A (h) Serotonin (Homo sapiens, UniProt P08908).
T4 sequence (P08908 1-422): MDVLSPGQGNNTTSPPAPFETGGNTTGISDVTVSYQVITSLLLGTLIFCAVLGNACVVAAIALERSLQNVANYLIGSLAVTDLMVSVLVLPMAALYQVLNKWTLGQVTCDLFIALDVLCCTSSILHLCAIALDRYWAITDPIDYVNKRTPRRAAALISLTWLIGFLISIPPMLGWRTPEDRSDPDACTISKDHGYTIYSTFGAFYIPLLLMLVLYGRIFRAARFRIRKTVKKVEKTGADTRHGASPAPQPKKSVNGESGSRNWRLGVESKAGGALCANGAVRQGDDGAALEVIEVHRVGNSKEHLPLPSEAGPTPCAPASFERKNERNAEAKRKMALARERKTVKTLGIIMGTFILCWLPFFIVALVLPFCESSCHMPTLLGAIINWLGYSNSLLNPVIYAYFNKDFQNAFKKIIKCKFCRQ
Nature of the assay: Cell-based functional GPCR assay, agonist effect. The settings on record: read-out: % of Control Agonist Response. The procedure: as §1
(§4) The method used to quantify the intracellular [Ca^2+] level varied slightly according to receptor type. However, in general, cells expressing different receptors (Table 1) were transfected with an expression vector encoding a receptor polypeptide and were allowed to grow for a time period sufficient for that receptor to be expressed. A fluorescent probe (Fluo8 Direct, Invitrogen, Carlsbad, CA, USA) mixed with probencid in HBSS buffer (Invitrogen, Carlsbad, CA, USA) supplemented with […] (Invitrogen) (pH 7.4) was then added to each well and allowed to equilibrate with the cells for 60 min at 37 °C. Thereafter, assay plates were positioned in a microplate reader (CellLux, PerkinElmer, Waltham, MA, USA) and eckol (25 and 50 μM), reference agonist, or HBSS buffer (basal control) were added, and measurements of the change in fluorescence intensity, which varies proportionally to the free cytosolic Ca^2+ ion concentration, were taken. Standard reference control (agonist and antagonist) values are presented in Table 1, and controls were included in each experiment at several concentrations to generate a concentration-response curve from which to calculate EC50 values.
as §3

Assay [5] deals with T5, M5 (h) Acetylcholine (muscarinic) (Homo sapiens, UniProt P08912).
T5 sequence (P08912 1-532): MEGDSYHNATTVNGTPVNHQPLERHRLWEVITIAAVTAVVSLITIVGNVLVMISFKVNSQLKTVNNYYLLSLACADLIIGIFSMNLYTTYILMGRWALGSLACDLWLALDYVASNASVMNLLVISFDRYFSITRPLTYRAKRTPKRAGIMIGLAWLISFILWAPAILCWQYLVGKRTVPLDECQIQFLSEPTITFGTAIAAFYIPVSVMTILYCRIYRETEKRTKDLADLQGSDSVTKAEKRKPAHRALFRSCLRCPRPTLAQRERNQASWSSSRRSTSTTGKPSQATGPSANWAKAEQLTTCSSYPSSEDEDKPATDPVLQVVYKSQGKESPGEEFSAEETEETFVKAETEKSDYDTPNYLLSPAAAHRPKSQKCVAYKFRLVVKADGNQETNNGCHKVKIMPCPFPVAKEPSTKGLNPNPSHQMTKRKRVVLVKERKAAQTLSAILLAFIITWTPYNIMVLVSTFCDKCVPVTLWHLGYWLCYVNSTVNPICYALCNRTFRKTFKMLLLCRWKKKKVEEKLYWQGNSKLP
Put plainly: Cell-based functional GPCR assay, agonist effect. The settings on record: read-out: % of Control Agonist Response. The procedure: as §1, §4, §3

The target of assay [6] is T6, NK1 (h) Tachykinin (Homo sapiens, UniProt P25103). Nature of the assay: Cell-based functional GPCR assay, agonist effect. The settings on record: read-out: % of Control Agonist Response. The procedure:
as §1, §4, §3

Assay [7] addresses T7, V1A (h) Vasopressin/Oxytocin (Homo sapiens, UniProt P37288). Nature of the assay: Cell-based functional GPCR assay, agonist effect. The settings on record: read-out: % of Control Agonist Response. The procedure:
as §1, §4, §3

The target in assay [8] is T1, D1 (h) Dopamine. Put plainly: Cell-based functional GPCR assay, antagonist effect (cAMP). Conditions: read-out: % Inhibition of Control Agonist Response. The procedure:
as §1, §2, §3

Assay [9] concerns the target T2, D3 (h) Dopamine. Described as above. Conditions: read-out: % Inhibition of Control Agonist Response. The procedure: as §1, §2, §3
The target in assay [10] is T3, D4 (h) Dopamine. Described as above. The settings on record: read-out: % Inhibition of Control Agonist Response. The procedure: as §1, §2, §3
The target in assay [11] is T4, 5-HT1A (h) Serotonin. Put plainly: Cell-based functional GPCR assay, antagonist effect. The settings on record: read-out: % Inhibition of Control Agonist Response. The procedure: as §1, §4, §3
The target in assay [12] is T5, M5 (h) Acetylcholine (muscarinic). The assay is described as above. Conditions: read-out: % Inhibition of Control Agonist Response. The procedure:
as §1, §4, §3

Assay [13] has as its target T6, NK1 (h) Tachykinin. The description is as above. The settings on record: read-out: % Inhibition of Control Agonist Response. The procedure: as §1, §4, §3
In assay [14] the target is T7, V1A (h) Vasopressin/Oxytocin. Described as above. Conditions: read-out: % Inhibition of Control Agonist Response. The procedure:
as §1, §4, §3

The target in assay [15] is T6, NK1 (h) Tachykinin. The arrangement: method as in Eurofins Panlab. The settings on record: as reported by Eurofins Panlab, ref Eurofins Panlab, read-out: Reference Antagonists of Respective Target Receptors IC50; cited from earlier work.
Where [16] appears, read: 25 μM, read-out: % of Control Agonist Response.
[17] abbreviates: 50 μM, read-out: % of Control Agonist Response.
Where [18] appears, read: read-out: EC50 (concentration producing a half-maximal agonist response).

T6 sequence (P25103 whole entry): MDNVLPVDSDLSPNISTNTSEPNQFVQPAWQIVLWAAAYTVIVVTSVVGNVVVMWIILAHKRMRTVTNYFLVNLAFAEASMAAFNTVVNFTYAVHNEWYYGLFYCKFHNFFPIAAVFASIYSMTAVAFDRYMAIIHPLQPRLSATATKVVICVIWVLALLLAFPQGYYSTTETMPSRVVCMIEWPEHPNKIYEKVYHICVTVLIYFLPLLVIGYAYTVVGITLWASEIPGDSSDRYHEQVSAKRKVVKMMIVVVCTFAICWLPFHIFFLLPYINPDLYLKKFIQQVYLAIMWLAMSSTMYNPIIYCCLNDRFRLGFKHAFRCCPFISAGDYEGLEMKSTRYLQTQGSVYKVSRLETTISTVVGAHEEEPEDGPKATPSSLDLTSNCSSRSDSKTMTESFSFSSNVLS
T2 sequence (P35462 whole entry): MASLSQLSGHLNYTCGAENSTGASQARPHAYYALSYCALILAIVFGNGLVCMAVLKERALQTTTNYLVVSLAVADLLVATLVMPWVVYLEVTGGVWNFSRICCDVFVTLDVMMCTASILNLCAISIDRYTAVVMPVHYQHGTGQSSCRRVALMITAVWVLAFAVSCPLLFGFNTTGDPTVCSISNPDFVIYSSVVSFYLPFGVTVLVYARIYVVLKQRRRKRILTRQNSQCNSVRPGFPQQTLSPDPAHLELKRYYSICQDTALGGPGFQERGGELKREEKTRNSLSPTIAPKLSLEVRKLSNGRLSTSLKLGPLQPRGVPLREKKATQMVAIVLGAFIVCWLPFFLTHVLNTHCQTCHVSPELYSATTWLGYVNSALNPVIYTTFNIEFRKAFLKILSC
T1 sequence (P21728 whole entry): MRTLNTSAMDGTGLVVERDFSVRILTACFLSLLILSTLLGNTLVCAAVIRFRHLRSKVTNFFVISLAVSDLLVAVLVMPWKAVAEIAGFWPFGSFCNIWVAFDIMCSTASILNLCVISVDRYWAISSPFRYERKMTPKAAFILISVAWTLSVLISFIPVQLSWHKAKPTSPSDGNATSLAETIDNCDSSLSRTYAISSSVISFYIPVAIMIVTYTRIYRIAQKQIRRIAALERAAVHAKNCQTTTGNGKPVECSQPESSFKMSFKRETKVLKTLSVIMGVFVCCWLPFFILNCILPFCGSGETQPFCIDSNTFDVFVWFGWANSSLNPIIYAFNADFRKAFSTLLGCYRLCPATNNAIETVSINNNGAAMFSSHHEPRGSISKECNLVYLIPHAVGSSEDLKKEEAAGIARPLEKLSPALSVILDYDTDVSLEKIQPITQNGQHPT
T7 sequence (P37288 whole entry): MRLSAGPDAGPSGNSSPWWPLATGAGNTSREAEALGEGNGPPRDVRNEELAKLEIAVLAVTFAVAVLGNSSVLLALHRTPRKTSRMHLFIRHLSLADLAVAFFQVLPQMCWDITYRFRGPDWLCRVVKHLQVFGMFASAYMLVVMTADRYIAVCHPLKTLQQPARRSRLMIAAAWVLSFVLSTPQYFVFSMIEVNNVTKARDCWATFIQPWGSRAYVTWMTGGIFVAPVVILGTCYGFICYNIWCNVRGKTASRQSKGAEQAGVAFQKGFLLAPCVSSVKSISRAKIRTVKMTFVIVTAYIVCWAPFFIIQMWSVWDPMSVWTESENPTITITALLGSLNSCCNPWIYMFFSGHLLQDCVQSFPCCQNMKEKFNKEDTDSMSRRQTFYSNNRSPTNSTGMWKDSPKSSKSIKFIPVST

With `Oc1cc(O)cc(Oc2c(O)cc(O)c3c2Oc2c(O)cc(O)cc2O3)c1` [Eckol, eckol], the activity at 25 µM was -0.58 ± 2.46% in assay [1] (25 μM); 10.6 ± 4.16% in assay [2] (setting [16]); 36.5 ± 10.9% in assay [3] (setting [16]); -1.78 ± 0.45% in assay [4] (25 μM); 0.38 ± 0.1% in assay [5] (25 μM); -2.32 ± 0.26% in assay [6] (25 μM). In assay [7] (25 μM), the activity at 25 µM is -8.91 ± 3.2%. In addition, the activity at 50 µM in [1] (50 μM) was -2.77 ± 1.27%; in assay [2] (setting [17]) it was 53.1 ± 6.67%; in assay [3] (setting [17]), 54.7 ± 7.05%; in [4] (50 μM), -3.04 ± 1.23%; in assay [5] (50 μM), 0.39 ± 0.46%; in assay [6] (50 μM), -2.99 ± 0.21%. In addition, the activity at 50 µM in assay [7] (50 μM) was -12.5 ± 0.51%. In addition, the figures for the EC50 in assay [2] (setting [18]) and in [3] (setting [18]) were 48.6 ± 3.21 µM and 42.6 ± 2.54 µM, respectively. For the same compound, the inhibition (usually the drop in the measured response relative to a control, in per cent) at 25 µM was 11.6 ± 2.15% in [8] (25 μM); -9 ± 6.98% in [9] (25 μM); 1.33 ± 1.7% in [10] (25 μM); 6.17 ± 10.3% in [11] (25 μM); 1 ± 0.4% in assay [12] (25 μM); -11.3 ± 6.37% in assay [13] (25 μM). For the same compound, the inhibition at 25 µM in [14] (25 μM) was -13.5 ± 6.93%. Besides, the inhibition at 50 µM in assay [8] (50 μM) is 1.89 ± 1.62%; in assay [9] (50 μM), -15.1 ± 2.51%; in [10] (50 μM), -3.33 ± 4.7%; in [11] (50 μM), 3.49 ± 4.33%; in assay [12] (50 μM) it was -4.8 ± 2.25%; in assay [13] (50 μM) it was -4.32 ± 3.33%. The inhibition at 50 µM in assay [14] (50 μM) was -4.26 ± 11.1%.

Take `FC(F)(F)c1cc(CO[C@H]2CCCN[C@H]2c2ccccc2)cc(C(F)(F)F)c1` [L 733,060]: the IC50 – broadly, the concentration that gives 50% inhibition – in assay [15] is 0.00021 µM.
